# Source: ChEMBL document CHEMBL1201862, “PubChem BioAssay data set” (2004)
#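 Assay format: 96-well plates, 48-hour exposure. GI50 is the concentration that inhibits growth by half.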 Calls of active or inactive are those of the source. Rule as the data show it: active = GI50 up to about 1.1 µM and inactive = higher.
# Assays:
# Assay in all cases: DTP human tumour cell line panel, 48 h
# [1] = tested on: 786-0
# [2] = tested on: A498
# [3] = tested on: A549
# [4] = tested on: ACHN
# [5] = tested on: CAKI-1
# [6] = tested on: CCRF-CEM
# [7] = tested on: COLO 205
# [8] = tested on: DU-145
# [9] = tested on: EKVX
# [10] = tested on: HCC 2998
# [11] = tested on: HCT-116
# [12] = tested on: HCT-15
# [13] = tested on: HOP-62
# [14] = tested on: HOP-92
# [15] = tested on: HT-29
# [16] = tested on: Hs-578T
# [17] = tested on: IGROV-1
# [18] = tested on: K562
# [19] = tested on: KM12
# [20] = tested on: LOX IMVI
# [21] = tested on: M14
# [22] = tested on: MCF7
# [23] = tested on: MDA-MB-231
# [24] = tested on: MDA-MB-435
# [25] = tested on: MDA-N
# [26] = tested on: MOLT-4
# [27] = tested on: Malme-3M
# [28] = tested on: NCI-H226
# [29] = tested on: NCI-H23
# [30] = tested on: NCI-H460
# [31] = tested on: NCI-H522
# [32] = tested on: NCI/ADR-RES
# [33] = tested on: OVCAR-3
# [34] = tested on: OVCAR-4
# [35] = tested on: OVCAR-5
# [36] = tested on: OVCAR-8
# [37] = tested on: PC-3
# [38] = tested on: RPMI-8226
# [39] = tested on: RXF 393
# [40] = tested on: SF-268
# [41] = tested on: SF-295
# [42] = tested on: SF-539
# [43] = tested on: SK-MEL-28
# [44] = tested on: SK-MEL-2
# [45] = tested on: SK-MEL-5
# [46] = tested on: SK-OV-3
# [47] = tested on: SN12C
# [48] = tested on: SNB-19
# [49] = tested on: SNB-75
# [50] = tested on: SR
# [51] = tested on: SW-620
# [52] = tested on: T47D
# [53] = tested on: TK-10
# [54] = tested on: U-251
# [55] = tested on: UACC-257
# [56] = tested on: UACC-62
# [57] = tested on: UO-31
# [58] = tested on: HL-60
smiles,measurement,setting,value
CC(C)NCC(O)c1ccc(OCc2ccccc2)c(OCc2ccccc2)c1-c1ccccc1 (stereo not drawn),GI50,[1],1.71 µM (inactive)
same,GI50,[2],2.49 µM (inactive)
same,GI50,[3],1.72 µM (inactive)
same,GI50,[4],1.68 µM (inactive)
same,GI50,[5],1.76 µM (inactive)
same,GI50,[6],1.95 µM (inactive)
same,GI50,[7],1.7 µM (inactive)
same,GI50,[8],1.75 µM (inactive)
same,GI50,[9],14.3 µM (inactive)
same,GI50,[10],1.69 µM (inactive)
same,GI50,[11],1.79 µM (inactive)
same,GI50,[12],1.82 µM
same,GI50,[13],1.79 µM (inactive)
same,GI50,[14],2.62 µM (inactive)
same,GI50,[15],1.66 µM (inactive)
same,GI50,[16],1.34 µM (inactive)
same,GI50,[17],1.41 µM (inactive)
same,GI50,[18],1.63 µM (inactive)
same,GI50,[19],2.16 µM (inactive)
same,GI50,[20],3.07 µM (inactive)
same,GI50,[21],1.93 µM (inactive)
same,GI50,[22],1.79 µM (inactive)
same,GI50,[23],1.69 µM (inactive)
same,GI50,[24],1.79 µM (inactive)
same,GI50,[25],1.69 µM (inactive)
same,GI50,[26],2.05 µM (inactive)
same,GI50,[27],1.77 µM (inactive)
same,GI50,[28],2.33 µM (inactive)
same,GI50,[29],1.97 µM (inactive)
same,GI50,[30],1.79 µM (inactive)
same,GI50,[31],1.65 µM (inactive)
same,GI50,[32],2 µM (inactive)
same,GI50,[33],1.8 µM (inactive)
same,GI50,[34],1.89 µM (inactive)
same,GI50,[35],1.77 µM (inactive)
same,GI50,[36],1.73 µM (inactive)
same,GI50,[37],1.53 µM (inactive)
same,GI50,[38],2.51 µM (inactive)
same,GI50,[39],3 µM (inactive)
same,GI50,[40],2.93 µM (inactive)
same,GI50,[41],2.05 µM (inactive)
same,GI50,[42],1.58 µM (inactive)
same,GI50,[43],1.76 µM (inactive)
same,GI50,[44],2.7 µM (inactive)
same,GI50,[45],1.25 µM (inactive)
same,GI50,[46],1.67 µM (inactive)
same,GI50,[47],1.75 µM (inactive)
same,GI50,[48],2.6 µM (inactive)
same,GI50,[49],1.28 µM (inactive)
same,GI50,[50],2.68 µM (inactive)
same,GI50,[51],1.63 µM (inactive)
same,GI50,[52],2.74 µM (inactive)
same,GI50,[53],2.35 µM (inactive)
same,GI50,[54],1.67 µM (inactive)
same,GI50,[55],1.88 µM (inactive)
same,GI50,[56],1.41 µM (inactive)
same,GI50,[57],2.52 µM (inactive)
O=Cc1c2c(cc3c1CC1(C3)Cc3cc4c(c(C=O)c3C1)CCCC4)CCCC2,GI50,[1],> 31.6 µM (inactive)
same,GI50,[2],> 10 µM (inactive)
same,GI50,[3],21.3 µM (inactive)
same,GI50,[4],22.9 µM (inactive)
same,GI50,[5],46.5 µM (inactive)
same,GI50,[7],25.1 µM (inactive)
same,GI50,[8],85.3 µM (inactive)
same,GI50,[9],23.9 µM (inactive)
same,GI50,[10],29.4 µM (inactive)
same,GI50,[11],20.4 µM (inactive)
same,GI50,[12],19.2 µM
same,GI50,[58],56.1 µM (inactive)
same,GI50,[13],> 31.6 µM (inactive)
same,GI50,[14],15.5 µM (inactive)
same,GI50,[15],18 µM (inactive)
same,GI50,[16],> 31.6 µM (inactive)
same,GI50,[17],23 µM (inactive)
same,GI50,[18],21.1 µM (inactive)
same,GI50,[19],21.6 µM (inactive)
same,GI50,[20],23.6 µM (inactive)
same,GI50,[21],> 31.6 µM (inactive)
same,GI50,[22],> 31.6 µM (inactive)
same,GI50,[23],27.6 µM (inactive)
same,GI50,[24],> 31.6 µM (inactive)
same,GI50,[25],> 31.6 µM (inactive)
same,GI50,[26],13.3 µM (inactive)
same,GI50,[27],> 31.6 µM (inactive)
same,GI50,[28],> 31.6 µM (inactive)
same,GI50,[29],27.5 µM (inactive)
same,GI50,[30],52.2 µM (inactive)
same,GI50,[31],14.3 µM (inactive)
same,GI50,[32],> 31.6 µM (inactive)
same,GI50,[33],> 31.6 µM (inactive)
same,GI50,[34],> 31.6 µM (inactive)
same,GI50,[35],> 31.6 µM (inactive)
same,GI50,[36],23.5 µM (inactive)
same,GI50,[37],19.9 µM (inactive)
same,GI50,[38],16.8 µM (inactive)
same,GI50,[39],> 31.6 µM (inactive)
same,GI50,[40],> 100 µM (inactive)
same,GI50,[41],20.6 µM (inactive)
same,GI50,[42],> 31.6 µM (inactive)
same,GI50,[43],> 100 µM (inactive)
same,GI50,[44],> 10 µM (inactive)
same,GI50,[45],> 31.6 µM (inactive)
same,GI50,[46],> 31.6 µM (inactive)
same,GI50,[47],> 31.6 µM (inactive)
same,GI50,[48],98.9 µM (inactive)
same,GI50,[49],> 100 µM (inactive)
same,GI50,[50],10.1 µM (inactive)
same,GI50,[51],89.3 µM (inactive)
same,GI50,[52],> 31.6 µM (inactive)
same,GI50,[53],> 31.6 µM (inactive)
same,GI50,[54],> 31.6 µM (inactive)
same,GI50,[55],> 31.6 µM (inactive)
same,GI50,[56],> 31.6 µM (inactive)
CCCCCCCCCCCCCCCCCCOCC(CO[PH](=O)O)OCCCCCCCCCCCCCCCCCC (stereo not drawn),GI50,[1],> 50 µM (inactive)
same,GI50,[2],> 50 µM (inactive)
same,GI50,[3],> 50 µM (inactive)
same,GI50,[5],> 50 µM (inactive)
same,GI50,[7],> 50 µM (inactive)
same,GI50,[8],> 50 µM (inactive)
same,GI50,[9],> 50 µM (inactive)
same,GI50,[10],> 50 µM (inactive)
same,GI50,[11],> 50 µM (inactive)
same,GI50,[12],> 50 µM
same,GI50,[58],> 50 µM (inactive)
same,GI50,[14],> 50 µM (inactive)
same,GI50,[15],> 50 µM (inactive)
same,GI50,[16],> 50 µM (inactive)
same,GI50,[17],> 50 µM (inactive)
same,GI50,[18],> 50 µM (inactive)
same,GI50,[19],> 50 µM (inactive)
same,GI50,[20],> 50 µM (inactive)
same,GI50,[21],> 50 µM (inactive)
same,GI50,[22],> 50 µM (inactive)
same,GI50,[23],> 50 µM (inactive)
same,GI50,[24],> 50 µM (inactive)
same,GI50,[25],> 50 µM (inactive)
same,GI50,[26],> 50 µM (inactive)
same,GI50,[28],> 50 µM (inactive)
same,GI50,[30],> 50 µM (inactive)
same,GI50,[31],> 50 µM (inactive)
same,GI50,[32],> 50 µM (inactive)
same,GI50,[33],> 50 µM (inactive)
same,GI50,[34],> 50 µM (inactive)
same,GI50,[35],> 50 µM (inactive)
same,GI50,[36],> 50 µM (inactive)
same,GI50,[37],> 50 µM (inactive)
same,GI50,[38],> 50 µM (inactive)
same,GI50,[39],> 50 µM (inactive)
same,GI50,[40],> 50 µM (inactive)
same,GI50,[42],> 50 µM (inactive)
same,GI50,[43],> 50 µM (inactive)
same,GI50,[44],> 50 µM (inactive)
same,GI50,[45],> 50 µM (inactive)
same,GI50,[46],> 50 µM (inactive)
same,GI50,[47],> 50 µM (inactive)
same,GI50,[48],> 50 µM (inactive)
same,GI50,[49],> 50 µM (inactive)
same,GI50,[50],> 50 µM (inactive)
same,GI50,[51],> 50 µM (inactive)
same,GI50,[52],> 50 µM (inactive)
same,GI50,[53],> 50 µM (inactive)
same,GI50,[54],> 50 µM (inactive)
same,GI50,[55],> 50 µM (inactive)
